# Laboratory results reported in patent publication US12453709B2, “Compositions and methods for treating autism” (priority 2013, dated 2025).
# System: male patients diagnosed with autism
# Test: Study HT 02-121: Autism Diagnostic Observation Schedule (ADOS-2)
# Assay type: in vivo, human
# Conditions: for ADOS-2 Restricted and Repetitive Behavior Mean Change from Screening / ADOS-2 Restricted and Repetitive Behavior Treatment effect versus placebo / ADOS-2 Restricted and Repetitive Behavior change, median / ADOS-2 Social Affect Mean Change from Screening / ADOS-2 Social Affect Treatment effect versus placebo / ADOS-2 Social Affect change, median / ADOS-2 Total Score Mean Change from Screening / ADOS-2 Total Score Treatment effect versus placebo / ADOS-2 Total Score change from Screening, median: Week 4/LOCF
# Description: This clinical study was a randomized double-blind, placebo-controlled two-cohort, 4-week dose-escalation study that incorporated two open-label treatment groups to assess the safety and efficacy of L1-79 100 mg and 200 mg TID in male patients between the ages of […] years of age diagnosed with autism. The first cohort of 20 patients was comprised of three groups of patients: The first group of five patients received open-label L1-79 100 mg TID and underwent PK and EKG assessments. The remaining two groups in this cohort consisted of 15 patients randomized on a 2:1 basis to receive L1-79 100 mg TID or placebo. The PK and safety data from the open-label L1-79 100 mg TID group was submitted to FDA for review and acceptance before the second cohort was enrolled. The second cohort was procedurally identical to the first. The second cohort of 20 patients was comprised of the same three groups of patients but a dose of 200 mg TID was used instead of 100 mg TID. The key inclusion criteria were as follows: (1) males between 13 and 21 years of age, (2) DSM-5 compliant diagnosis of autism spectrum disorder, confirmed by the Autistic Diagnosis Interview Review (ADIR), and by an ADOS-2 score consistent with a diagnosis of autism, (3) must have been stable on no more than one concomitant medication and no planned changes in psychosocial interventions during the study.
# The primary efficacy endpoint was the determination of the clinical improvement by the investigator as documented by the Clinical Global Impression (CGI) rating scales. Additional efficacy endpoints included: (1) changes from baseline in the Socialization and Communication Domains of the Vineland Adaptive Behavior Scales, Second Edition (VABS II) parent/caregiver rating form, (2) changes from baseline in the ADOS-2 Total Score and subscores, (3) changes in the Social Responsiveness Scale, Second Edition (SRS-2) Total Score and subscales, (4) changes in the ABC-C domains, (5) changes in the Repetitive Behavior Scale-Revised (RBS-R) Total Score and subscales. Given the exploratory design of this study only descriptive statistics were planned.
# In the preliminary study, all forms were completed at the study site in the presence of the investigator. In Cohort 1 of the present study, the VABS-II, SRS-2, ABC-C and RBS-R were filled out at home by the patient/patient's families prior to treatment visits and returned at treatment visits in order to expedite the execution of the study.
smiles,measurement,setting,value
"CC(N)(Cc1ccc(O)cc1)C(=O)O (racemic) [L1-79, α-methyl-DL-tyrosine]",ADOS-2 Restricted and Repetitive Behavior Mean Change from Screening,DB 100 mg TID,0.3
same,ADOS-2 Restricted and Repetitive Behavior Treatment effect versus placebo,DB 100 mg TID,0.5
same,"ADOS-2 Restricted and Repetitive Behavior change, median",DB 100 mg TID,"−1, 0, 1"
same,ADOS-2 Social Affect Mean Change from Screening,DB 100 mg TID,−0.9
same,ADOS-2 Social Affect Treatment effect versus placebo,DB 100 mg TID,−1.0
same,"ADOS-2 Social Affect change, median",DB 100 mg TID,"−2, 0, 1"
same,ADOS-2 Total Score Mean Change from Screening,DB 100 mg TID,−0.6
same,ADOS-2 Total Score Treatment effect versus placebo,DB 100 mg TID,−0.6
same,"ADOS-2 Total Score change from Screening, median",DB 100 mg TID,"−1, 0, 0"
same,ADOS-2 Restricted and Repetitive Behavior Mean Change from Screening,DB 200 mg TID,−1.0
same,ADOS-2 Restricted and Repetitive Behavior Treatment effect versus placebo,DB 200 mg TID,−0.9
same,"ADOS-2 Restricted and Repetitive Behavior change, median",DB 200 mg TID,"−2, −1, 0"
same,ADOS-2 Social Affect Mean Change from Screening,DB 200 mg TID,0.0
same,ADOS-2 Social Affect Treatment effect versus placebo,DB 200 mg TID,−0.1
same,"ADOS-2 Social Affect change, median",DB 200 mg TID,"−1, 1, 1"
same,ADOS-2 Total Score Mean Change from Screening,DB 200 mg TID,−1.0
same,ADOS-2 Total Score Treatment effect versus placebo,DB 200 mg TID,−1.0
same,"ADOS-2 Total Score change from Screening, median",DB 200 mg TID,"−1, −1, 0"
same,improvement from baseline in ADOS-2 scores,less than one month of treatment,nearly one point
